The source of these data is PubChem BioAssay (NCI).

“And” between values parts separate entries of the source, which are not always exact repeats. Equal entries are not always repeated.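 Each compound was tested at five concentrations against cells in 96-well plates for 48 hours. Abbreviation: GI50, concentration required for 50% inhibition of growth. TGI is the concentration that stops growth completely.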

Among the test systems are HOP-92 NSCLC; COLO 205 colon; HCT-116 colon; U251 CNS; M14 melanoma; UO-31 renal; SW-620 colon; 786-0 renal; UACC-62 melanoma.
Common to all, as to assay: DTP human tumour cell line panel, 48 h

For orientation: TGI means the concentration at which net growth stops. Low values mean more potent growth arrest, high ones less potent growth arrest. As a reminder, the GI50 is the concentration giving 50% growth inhibition.

As for `COC1(CC[C@@H](C)COC2OC(CO)C(O)C(O)C2O)OC2C[C@H]3[C@@H]4CC[C@H]5C[C@@H](OC6OC(CO)C(OC7OC(CO)C(O)C(O)C7O)C(O)C6OC6OC(C)C(O)C(O)C6O)[C@H](O)C[C@]5(C)[C@H]4CC[C@]3(C)C2[C@@H]1C` (stereo partly drawn), the concentration for total growth inhibition (TGI) in the assay with HOP-92 NSCLC worked out at 12.8 µM; with COLO 205 colon, 6.69 µM; in the assay on HCT-116 colon, 3.67 µM; with U251 CNS, 3.49 µM; with M14 melanoma it was 3.36 µM; in the assay with UO-31 renal, 3.31 µM. For the same compound, the TGI with SW-620 colon came to 4.66 µM; in the assay on 786-0 renal, 4.04 µM; in the assay on UACC-62 melanoma, 3.45 µM.

In the case of `COC(=N)C1(C#N)NC(c2ccsc2)C(C#N)(C#N)NC1c1ccsc1` (stereo not drawn), the concentration for total growth inhibition (TGI) in the assay on HOP-92 NSCLC, in the assay on COLO 205 colon, in the assay with HCT-116 colon, with U251 CNS, in the assay with M14 melanoma and in the assay on UO-31 renal was over 100 µM in each case. Besides, the TGI with SW-620 colon, with 786-0 renal and in the assay with UACC-62 melanoma was over 100 µM in each case.

In the case of `N#CCCC(C=O)(CCC#N)CCC#N`, the TGI in the assay with HOP-92 NSCLC, with COLO 205 colon, in the assay with HCT-116 colon, in the assay on U251 CNS, in the assay on M14 melanoma and in the assay with UO-31 renal was over 100 µM throughout. Besides, the TGI with SW-620 colon, in the assay with 786-0 renal and with UACC-62 melanoma was over 100 µM in each case.

As to `O=CCCCCCOCc1ccccc1`, the TGI was over 100 µM in the assay with HOP-92 NSCLC; over 100 µM with COLO 205 colon; over 67.9 µM in the assay on HCT-116 colon; over 100 µM with U251 CNS; over 100 µM in the assay with M14 melanoma; over 100 µM in the assay on UO-31 renal. Also, the TGI with SW-620 colon is over 100 µM; in the assay on 786-0 renal it was 68.1 µM; in the assay on UACC-62 melanoma, over 89.4 µM.

Take `COC(=O)C1OC(O[C@H]2CC[C@]3(C)[C@H]4CC=C5[C@@H]6CC(C)(C)CC[C@]6(C(=O)OC6OCC(O)C(O)C6OC6OC(C)C(OC7OCC(O)C(O)C7O)C(O)C6O)[C@H](O)C[C@@]5(C)[C@]4(C)CC[C@H]3C2(C)C)C(O)C(O)C1O` (stereo partly drawn): the TGI in the assay with HOP-92 NSCLC was 5.2 µM and 8.4 µM; with COLO 205 colon, 3.02 µM and 3.31 µM; in the assay on HCT-116 colon it was > 100 µM and 17.4 µM; in the assay on U251 CNS, 17.7 µM and 19.8 µM; in the assay on M14 melanoma, 7.65 µM and 14.8 µM; in the assay with UO-31 renal, 3.54 µM and 5.18 µM. The TGI was > 57 µM and 27.2 µM in the assay on SW-620 colon; 19 µM and 21.8 µM in the assay with 786-0 renal; 8.55 µM and 21.7 µM in the assay on UACC-62 melanoma. Moreover, in the assay on UACC-62 melanoma, the GI50 is 2.89 µM and 7.04 µM.

In the case of `CC1=NN(C(=O)CC(=O)Nc2cccc(C)c2)C(=O)C1N=Nc1ccc(S(=O)(=O)CCOS(=O)(=O)O)cc1` (stereo not drawn), the TGI with HOP-92 NSCLC was found to be 17.9 µM; with COLO 205 colon, 8.42 µM; in the assay with HCT-116 colon, 12.6 µM; in the assay on U251 CNS it was 13.6 µM; with M14 melanoma, 17.3 µM; in the assay with UO-31 renal it was 10.5 µM. In addition, the results for the TGI in the assay on SW-620 colon, in the assay on 786-0 renal and with UACC-62 melanoma were 14.5 µM, 12.9 µM and 9.34 µM, respectively.

On to `CC(=O)NC1C(OCc2ccccc2)OC(CO)C(O)C1OC(C)C(=O)N[C@@H](C)C(=O)N[C@H](CCC(=O)NCCNCCNc1c2ccccc2nc2cccc([N+](=O)[O-])c12)C(N)=O` (stereo partly drawn), for which the TGI with HOP-92 NSCLC stood at 0.169 µM; in the assay with COLO 205 colon, 0.198 µM; in the assay with HCT-116 colon, 0.512 µM; with U251 CNS it was 3.41 µM; with M14 melanoma it was 0.436 µM; in the assay with UO-31 renal it was 0.607 µM. Further, the total growth inhibition concentration (TGI) in the assay with SW-620 colon is over 38.1 µM; with 786-0 renal, 0.921 µM; in the assay with UACC-62 melanoma, 0.199 µM.

For the compound `CCCCCC[C@H]([C@H](C)O)n1cnc2c(N)ncnc21`, the TGI with HOP-92 NSCLC, in the assay with COLO 205 colon, in the assay with HCT-116 colon, in the assay on U251 CNS, in the assay on M14 melanoma and in the assay with UO-31 renal was over 100 µM each time. The total growth inhibition concentration (TGI) in the assay on SW-620 colon, in the assay on 786-0 renal and in the assay on UACC-62 melanoma was over 100 µM throughout.

With `Cc1c(C)c2c(c(N)c1C#N)C(=O)N(N)C2=O`, the TGI in the assay with HOP-92 NSCLC, in the assay with COLO 205 colon, in the assay with HCT-116 colon, with U251 CNS, with M14 melanoma and in the assay on UO-31 renal was over 100 µM throughout. Further, the TGI in the assay on SW-620 colon, in the assay with 786-0 renal and in the assay on UACC-62 melanoma was over 100 µM in each case.

With `CN1CCN(C(=O)c2cn(Cc3cncn3Cc3ccc4c(c3)OCO4)cc2-c2cccc3ccccc23)CC1`, the TGI was 57.8 µM with HOP-92 NSCLC; 49.9 µM in the assay with COLO 205 colon; over 100 µM with HCT-116 colon; over 100 µM with U251 CNS; 46 µM with M14 melanoma; over 100 µM in the assay on UO-31 renal. The TGI is over 100 µM in the assay on SW-620 colon, over 86 µM in the assay on 786-0 renal and 46.8 µM in the assay with UACC-62 melanoma.

Take `COc1cc2c(/C=C3/C(=O)Nc4ccccc43)c(Cl)n(Cc3ccc(Cl)cc3)c2cc1C`: the TGI stood at 39.5 µM with HOP-92 NSCLC; 0.665 µM in the assay on COLO 205 colon; 0.824 µM in the assay on HCT-116 colon; 1.23 µM with U251 CNS; 1.75 µM in the assay with M14 melanoma; 17.6 µM in the assay on UO-31 renal. In addition, the results for the TGI in the assay with SW-620 colon, in the assay on 786-0 renal and in the assay with UACC-62 melanoma were 17.5 µM, 1.4 µM and 2.5 µM, respectively.

Turning to `NC(=O)[C@H](Cc1ccc(O)cc1)Nc1c(O)c2c(c(O)c1Cl)C(=O)C=CC2=O`, the total growth inhibition concentration (TGI) in the assay on HOP-92 NSCLC is 4.72 µM; in the assay with COLO 205 colon it was 3.36 µM; in the assay on HCT-116 colon it was 3.27 µM; with U251 CNS it was over 8.11 µM; in the assay on M14 melanoma, over 7 µM; with UO-31 renal, over 6.36 µM. Also, the TGI in the assay on SW-620 colon was 2.82 µM; in the assay with 786-0 renal, 4.62 µM; in the assay on UACC-62 melanoma it was 4.29 µM.

For the compound `CCc1nc(N)c2nc(-c3cccs3)oc2n1`, the total growth inhibition concentration (TGI) in the assay with HOP-92 NSCLC, with COLO 205 colon, in the assay on HCT-116 colon, with U251 CNS, in the assay with M14 melanoma and with UO-31 renal was over 100 µM each time. Further, the TGI in the assay on SW-620 colon, in the assay on 786-0 renal and with UACC-62 melanoma was over 100 µM throughout.
